Assay results published in ChEMBL document CHEMBL1201862, “PubChem BioAssay data set” (2004).
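Grown in 96-well plates, cells were treated for 48 hours with each compound at five concentrations. Insufficient inhibition: endpoint recorded as highest concentration tested. GI50 is the concentration that inhibits growth by half.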 Activity calls are given as the source filed them. Cut-off read from the data, not from the text of the source: active = GI50 up to about 1.1 µM and inactive = higher.

Columns and labels:
Assay in all cases: NCI anticancer screen, dose series, 48 h
BT-549 = test system: BT-549
DU-145 = test system: DU-145
EKVX = test system: EKVX
HCC 2998 = test system: HCC 2998
HCT-15 = test system: HCT-15
HOP-62 = test system: HOP-62
KM12 = test system: KM12
MCF7 = test system: MCF7
OVCAR-3 = test system: OVCAR-3
OVCAR-4 = test system: OVCAR-4
OVCAR-8 = test system: OVCAR-8
RPMI-8226 = test system: RPMI-8226
RXF 393 = test system: RXF 393
SF-268 = test system: SF-268
SNB-19 = test system: SNB-19
SR = test system: SR
UO-31 = test system: UO-31
A549 = test system: A549
M14 = test system: M14
SK-OV-3 = test system: SK-OV-3

SMILES: O=C1NC(=S)N/C1=C\c1cc2c(=O)c3ccccc3sc2s1
- GI50 (BT-549): 35 µM (inactive)
- GI50 (DU-145): > 100 µM (inactive)
- GI50 (EKVX): 3.51 µM (inactive)
- GI50 (HCC 2998): 71.1 µM (inactive)
- GI50 (HCT-15): > 100 µM
- GI50 (HOP-62): 32.5 µM (inactive)
- GI50 (KM12): > 100 µM (inactive)
- GI50 (MCF7): 35.8 µM (inactive)
- GI50 (OVCAR-3): 54.1 µM (inactive)
- GI50 (OVCAR-4): 76 µM (inactive)
- GI50 (OVCAR-8): 57.5 µM (inactive)
- GI50 (RPMI-8226): 25.6 µM (inactive)
- GI50 (RXF 393): 68.1 µM (inactive)
- GI50 (SF-268): > 100 µM (inactive)
- GI50 (SNB-19): 33.4 µM (inactive)
- GI50 (SR): 22.8 µM (inactive)
- GI50 (UO-31): 58.5 µM (inactive)

SMILES: COc1ccccc1C(=O)c1ccc2ccccc2c1
- GI50 (A549): 17.9 µM (inactive)
- GI50 (BT-549): 16.1 µM (inactive)
- GI50 (DU-145): 20.6 µM (inactive)
- GI50 (EKVX): 16.5 µM (inactive)
- GI50 (HCC 2998): 51.8 µM (inactive)
- GI50 (HCT-15): 9.55 µM
- GI50 (HOP-62): 33.7 µM (inactive)
- GI50 (KM12): 4.34 µM (inactive)
- GI50 (M14): 11.9 µM (inactive)
- GI50 (MCF7): 8.15 µM (inactive)
- GI50 (OVCAR-3): 9.4 µM (inactive)
- GI50 (OVCAR-4): 36 µM (inactive)
- GI50 (OVCAR-8): 26.4 µM (inactive)
- GI50 (RPMI-8226): 16.2 µM (inactive)
- GI50 (RXF 393): 22.5 µM (inactive)
- GI50 (SF-268): 30.5 µM (inactive)
- GI50 (SNB-19): 19.5 µM (inactive)
- GI50 (SR): 3.24 µM (inactive)
- GI50 (UO-31): 20.6 µM (inactive)

SMILES: C#CC(O)/C=C/CCCCCCC#CC/C=C\CC#CCCCCCCCCC(O)C#C (configuration not stated)
- GI50 (A549): 8.43 µM (inactive)
- GI50 (BT-549): 6.71 µM (inactive)
- GI50 (DU-145): 5.83 µM (inactive)
- GI50 (EKVX): 3.51 µM (inactive)
- GI50 (HCC 2998): 3.63 µM (inactive)
- GI50 (HCT-15): 3.27 µM
- GI50 (HOP-62): 4.27 µM (inactive)
- GI50 (KM12): 3.05 µM (inactive)
- GI50 (M14): 1.11 µM (active)
- GI50 (MCF7): 17.4 µM (inactive)
- GI50 (OVCAR-3): 10.1 µM (inactive)
- GI50 (OVCAR-4): 4.19 µM (inactive)
- GI50 (OVCAR-8): 1.91 µM (inactive)
- GI50 (RXF 393): 14.6 µM (inactive)
- GI50 (SF-268): 9.59 µM (inactive)
- GI50 (SK-OV-3): 17.6 µM (inactive)
- GI50 (SNB-19): 20 µM (inactive)
- GI50 (SR): 2.37 µM (inactive)
- GI50 (UO-31): 0.667 µM (active)

SMILES: CC(=O)N(C)c1cc(NCc2ccccc2)ccc1OCc1ccccc1
- GI50 (A549): 18.3 µM (inactive)
- GI50 (BT-549): 20.6 µM (inactive)
- GI50 (DU-145): 17.1 µM (inactive)
- GI50 (EKVX): 18.5 µM (inactive)
- GI50 (HCC 2998): 18.8 µM (inactive)
- GI50 (HCT-15): 19.1 µM
- GI50 (HOP-62): 33 µM (inactive)
- GI50 (KM12): 21.3 µM (inactive)
- GI50 (M14): 22.1 µM (inactive)
- GI50 (MCF7): 17.9 µM (inactive)
- GI50 (OVCAR-3): 16.6 µM (inactive)
- GI50 (OVCAR-4): 18.7 µM (inactive)
- GI50 (OVCAR-8): 17.3 µM (inactive)
- GI50 (RXF 393): 14.8 µM (inactive)
- GI50 (SF-268): 14.7 µM (inactive)
- GI50 (SK-OV-3): 21.7 µM (inactive)
- GI50 (SNB-19): 17.9 µM (inactive)
- GI50 (SR): 15.5 µM (inactive)
- GI50 (UO-31): 14.8 µM (inactive)

SMILES: N#Cc1c(=O)c2ccccc2n2c1[nH]c1ccccc12
- GI50 (A549): 58.1 µM (inactive)
- GI50 (BT-549): 58.3 µM (inactive)
- GI50 (DU-145): 33.9 µM (inactive)
- GI50 (EKVX): 25 µM (inactive)
- GI50 (HCC 2998): 58.3 µM (inactive)
- GI50 (HCT-15): 17.6 µM
- GI50 (HOP-62): > 100 µM (inactive)
- GI50 (KM12): 27.4 µM (inactive)
- GI50 (M14): 57.5 µM (inactive)
- GI50 (MCF7): 56.2 µM (inactive)
- GI50 (OVCAR-3): 38.6 µM (inactive)
- GI50 (OVCAR-4): 24.1 µM (inactive)
- GI50 (OVCAR-8): 27.6 µM (inactive)
- GI50 (RPMI-8226): 19.2 µM (inactive)
- GI50 (RXF 393): 4.44 µM (inactive)
- GI50 (SF-268): 31.5 µM (inactive)
- GI50 (SNB-19): 42.5 µM (inactive)
- GI50 (SR): 0.618 µM (active)
- GI50 (UO-31): 33.7 µM (inactive)

SMILES: O=c1c2c([N+](=O)[O-])cccc2nc2[nH]c3ccccc3n12
- GI50 (A549): 40.3 µM (inactive)
- GI50 (BT-549): 20.5 µM (inactive)
- GI50 (DU-145): 34 µM (inactive)
- GI50 (EKVX): 30.2 µM (inactive)
- GI50 (HCC 2998): 19.3 µM (inactive)
- GI50 (HCT-15): 53.6 µM
- GI50 (HOP-62): 70.8 µM (inactive)
- GI50 (KM12): 32.4 µM (inactive)
- GI50 (M14): > 75 µM (inactive)
- GI50 (MCF7): 20.4 µM (inactive)
- GI50 (OVCAR-3): 20.7 µM (inactive)
- GI50 (OVCAR-4): 11.6 µM (inactive)
- GI50 (OVCAR-8): 14.5 µM (inactive)
- GI50 (RPMI-8226): 64.1 µM (inactive)
- GI50 (RXF 393): 13.8 µM (inactive)
- GI50 (SF-268): 18.7 µM (inactive)
- GI50 (SK-OV-3): 13.3 µM (inactive)
- GI50 (SNB-19): 30.9 µM (inactive)
- GI50 (SR): 54.2 µM (inactive)

SMILES: Nc1c(F)c(F)c2c(c1F)N(CCCCCl)c1ccccc1S2
- GI50 (A549): > 100 µM (inactive)
- GI50 (BT-549): > 100 µM (inactive)
- GI50 (DU-145): > 100 µM (inactive)
- GI50 (HCC 2998): > 100 µM (inactive)
- GI50 (HCT-15): > 100 µM
- GI50 (HOP-62): > 100 µM (inactive)
- GI50 (KM12): > 100 µM (inactive)
- GI50 (M14): > 100 µM (inactive)
- GI50 (MCF7): > 100 µM (inactive)
- GI50 (OVCAR-3): > 100 µM (inactive)
- GI50 (OVCAR-4): > 100 µM (inactive)
- GI50 (RPMI-8226): > 100 µM (inactive)
- GI50 (RXF 393): > 100 µM (inactive)
- GI50 (SF-268): > 100 µM (inactive)
- GI50 (SK-OV-3): > 100 µM (inactive)
- GI50 (SNB-19): > 100 µM (inactive)
- GI50 (SR): > 100 µM (inactive)
- GI50 (UO-31): > 100 µM (inactive)

SMILES: CCOc1ccccc1N1CSc2nnc(-c3ccccc3)n2C1
- GI50 (A549): > 100 µM (inactive)
- GI50 (BT-549): > 100 µM (inactive)
- GI50 (DU-145): > 100 µM (inactive)
- GI50 (HCC 2998): > 100 µM (inactive)
- GI50 (HCT-15): > 100 µM
- GI50 (HOP-62): > 100 µM (inactive)
- GI50 (KM12): > 100 µM (inactive)
- GI50 (M14): > 100 µM (inactive)
- GI50 (MCF7): 97.3 µM (inactive)
- GI50 (OVCAR-3): > 100 µM (inactive)
- GI50 (OVCAR-4): > 100 µM (inactive)
- GI50 (OVCAR-8): > 100 µM (inactive)
- GI50 (RPMI-8226): 33.8 µM (inactive)
- GI50 (RXF 393): > 100 µM (inactive)
- GI50 (SF-268): > 100 µM (inactive)
- GI50 (SK-OV-3): > 100 µM (inactive)
- GI50 (SR): 44.4 µM (inactive)
- GI50 (UO-31): > 100 µM (inactive)

SMILES: CC(=O)Nn1c(=S)[nH]c2ccccc21
- GI50 (A549): > 100 µM (inactive)
- GI50 (BT-549): > 100 µM (inactive)
- GI50 (DU-145): > 100 µM (inactive)
- GI50 (EKVX): > 100 µM (inactive)
- GI50 (HCC 2998): > 100 µM (inactive)
- GI50 (HCT-15): > 100 µM
- GI50 (HOP-62): > 100 µM (inactive)
- GI50 (KM12): > 100 µM (inactive)
- GI50 (M14): > 100 µM (inactive)
- GI50 (MCF7): > 100 µM (inactive)
- GI50 (OVCAR-4): > 100 µM (inactive)
- GI50 (OVCAR-8): > 100 µM (inactive)
- GI50 (RPMI-8226): > 100 µM (inactive)
- GI50 (RXF 393): > 100 µM (inactive)
- GI50 (SF-268): > 100 µM (inactive)
- GI50 (SK-OV-3): > 100 µM (inactive)
- GI50 (SNB-19): > 100 µM (inactive)
- GI50 (SR): > 100 µM (inactive)
- GI50 (UO-31): > 100 µM (inactive)

SMILES: COc1c(CC=C(C)C)c(O)c(C(CC(C)C)c2c(O)c(C(C)=O)c(O)c3c2OC(C(C)(C)O)C3)c(O)c1C(C)=O (configuration not stated) [ACROFOLIONE A]
- GI50 (A549): 7.96 µM (inactive)
- GI50 (BT-549): 3.27 µM (inactive)
- GI50 (DU-145): 4.71 µM (inactive)
- GI50 (EKVX): 4.51 µM (inactive)
- GI50 (HCC 2998): 4.46 µM (inactive)
- GI50 (HCT-15): 3.86 µM
- GI50 (M14): 5.56 µM (inactive)
- GI50 (MCF7): 4.26 µM (inactive)
- GI50 (OVCAR-3): 5.42 µM (inactive)
- GI50 (OVCAR-4): 5.68 µM (inactive)
- GI50 (OVCAR-8): 4.12 µM (inactive)
- GI50 (RXF 393): 2.88 µM (inactive)
- GI50 (SF-268): 5.33 µM (inactive)
- GI50 (SNB-19): 7.33 µM (inactive)
- GI50 (SR): 2.82 µM (inactive)
- GI50 (UO-31): 4.16 µM (inactive)

SMILES: Cc1cn([C@H]2C=C[C@@H](CO)O2)c(=O)[nH]c1=O [STAVUDINE]
- GI50 (A549): > 1000 µM (inactive)
- GI50 (BT-549): 327 µM (inactive)
- GI50 (DU-145): > 1000 µM (inactive)
- GI50 (EKVX): > 1000 µM (inactive)
- GI50 (HCC 2998): > 1000 µM (inactive)
- GI50 (HCT-15): > 1000 µM
- GI50 (HOP-62): > 1000 µM (inactive)
- GI50 (KM12): > 1000 µM (inactive)
- GI50 (M14): > 1000 µM (inactive)
- GI50 (MCF7): 617 µM (inactive)
- GI50 (OVCAR-3): > 1000 µM (inactive)
- GI50 (OVCAR-4): > 1000 µM (inactive)
- GI50 (OVCAR-8): > 1000 µM (inactive)
- GI50 (RPMI-8226): 466 µM (inactive)
- GI50 (SF-268): > 1000 µM (inactive)
- GI50 (SK-OV-3): > 1000 µM (inactive)
- GI50 (SNB-19): > 1000 µM (inactive)
- GI50 (SR): 780 µM (inactive)
- GI50 (UO-31): 490 µM (inactive)
